# Measurements published in US20250032499A1, “METHODS OF TREATING PERIPHERAL T-CELL LYMPHOMA” (Secura Bio, Inc., priority 2021, published 2025).
# Tests used:
# [1] = test system: patients with relapsed or refractory peripheral T-cell lymphoma (R/R PTCL); experiment: Expansion phase (PRIMO-EP) of the trial in R/R PTCL: duvelisib 75 mg BID for 2 cycles, then 25 mg BID; format: in vivo, human; settings: for AESI Cutaneous reactions, % / AESI Diarrhea, % / AESI Infections, % / AESI Neutropenia/neutrophil count decreased, % / AESI Pneumonia, % / AESI Pneumonitis, % / AESI Transaminase elevation, % / AESI Colitis, %: all grades
# Method: An expansion phase of the above trial described in Example 1 was carried out. Based on the dose optimization results, patients in the expansion phase received duvelisib at 75 mg BID for 2 cycles to maximize rapid tumor control, followed by 25 mg BID to maintain long-term disease control and mitigate late toxicities, until progressive disease (PD) or unacceptable toxicity. The primary endpoint was the overall response rates (ORR) as assessed by the Independent Review Committee (IRC), and secondary endpoints included ORR by INV assessment, duration of response (DOR), progression free survival (PFS), overall survival (OS), disease control rate (DCR), and safety. […] Analysis was performed on data collected from a total of 101 patients with a median follow-up of 8.7 months from time of first response. All patients had pathologically confirmed PTCL (WHO criteria) with a CD4 lymphocyte count of ≥50/mm^3 and received ≥2 cycles of ≥1 prior standard regimen. Prior treatments received included CHOP/R-CHOP, CHOEP/EPOCH, or BV/BV-chemo (all 36.60% r), salvage chemo after CHOP/R-CHOP or CHOEP/EPOCH (37.60), and SCT (21.80). The mean treatment duration was 17.1 weeks, and the median (range) treatment duration was 9.0 (1-79) weeks. Exposure by treatment duration included 43.6% (≤2 cycles), 23.8% (>2-4 cycles), and […] (>4 cycles). The ORR by IRC was […]. In patients with ≥3 prior lines, the ORR was maintained (49.10%).
# [2] = test system: patients with relapsed or refractory peripheral T-cell lymphoma (R/R PTCL); experiment: Phase 2 open-label parallel cohort trial of duvelisib in R/R PTCL, dose-optimization phase (25 mg BID vs 75 mg BID); format: in vivo, human; settings: for overall response rate (ORR): 28-day cycles, oral
# Method: Prior to the present disclosure, Applicant ran a clinical trial using duvelisib to treat PTCL. The trial included two cohorts. In cohort 1, subjects were orally administered duvelisib at a starting dose of 25 mg twice daily (BID), with potential escalation on a per-patient basis to 50 mg BID and then 75 mg BID, based on the patient's response to and tolerance of therapy. Doses were administered in 28-day cycles. In cohort 2, subjects were orally administered 75 mg duvelisib BID, in 28-day cycles. The overall response rate (ORR) in the 75 mg BID cohort was 54% ORR.
# A phase 2, open-label, multi-center, parallel cohort trial of duvelisib in R/R PTCL was carried out. Patients were treated with duvelisib for two 28-day cycles with either 25 mg BID (DUV25) or 75 mg BID (DUV75). Patients with pathologically confirmed R/R PTCL (WHO criteria) after ≥2 cycles of ≥1 prior standard regimen, and a CD4 lymphocyte count of ≥50/mm^3 were eligible for enrollment in the study.
# [3] = Prior Salvage Chemotherapy CHOP/R-CHOP or CHOEP/EPOCH
# [4] = all causality, 1 prior regimen (N = 26)
# [5] = all causality, 2 prior regimens (N = 22)
# [6] = all causality, 3+ prior regimens (N = 53)
# [7] = all causality, Tx Duration >2-4 cycles (N = 56)
# [8] = all causality, Tx Duration >4 cycles (N = 31)
# [9] = all causality, Tx Duration ≤2 cycles (N = 101)
smiles,measurement,setting,value
"C[C@H](Nc1ncnc2[nH]cnc12)c1cc2cccc(Cl)c2c(=O)n1-c1ccccc1 [duvelisib, (S)-3-(1-((9H-purin-6-yl)amino)ethyl)-8-chloro-2-phenylisoquinolin-1(2H)-one]",Response (CR + PR) by number of prior regimens,[1]; 1 prior regimen (n = 26),34.6%
same,Response (CR + PR) by number of prior regimens,[1]; 2 prior regimens (n = 22),63.6%
same,Response (CR + PR) by number of prior regimens,[1]; 3+ prior regimens (n = 53),49.1%
same,TEAEs leading to dose hold,[1]; % of patients,37.6%
same,TEAEs leading to dose reduction,[1]; % of patients,3.0%
same,diarrhea,"[1]; AE, all causality, maximum GR3",7.9%
same,increased alanine aminotransferase (ALT),"[1]; AE, all causality, maximum GR3",14.9%
same,increased aspartate aminotransferase (AST),"[1]; AE, all causality, maximum GR3",13.4%
same,neutropenia,"[1]; AE, all causality, maximum GR3",13.8%
same,rash maculo-papular,"[1]; AE, all causality, maximum GR3",7.9%
same,increased ALT,"[1]; AE, all causality, maximum GR4",5.9%
same,Median (range) PFS,[1]; N = 101,3.62 (0.03+-17.2+) months
same,deaths in TEAEs other than PD (total),[1]; N = 101,8
same,BOR by prior therapy: CR,[1]; Prior BV or BV-chemo,32.4 % of subgroup
same,BOR by prior therapy: PR,[1]; Prior BV or BV-chemo,10.8 % of subgroup
same,BOR by prior therapy: SD,[1]; Prior BV or BV-chemo,0 % of subgroup
same,BOR by prior therapy: CR,[1]; Prior CHOEP/EPOCH,27.0 % of subgroup
same,BOR by prior therapy: PR,[1]; Prior CHOEP/EPOCH,27.0 % of subgroup
same,BOR by prior therapy: SD,[1]; Prior CHOEP/EPOCH,0 % of subgroup
same,BOR by prior therapy: CR,[1]; Prior CHOP/R-CHOP,37.8 % of subgroup
same,BOR by prior therapy: PR,[1]; Prior CHOP/R-CHOP,5.4 % of subgroup
same,BOR by prior therapy: SD,[1]; Prior CHOP/R-CHOP,2.7 % of subgroup
same,BOR by prior therapy: CR,[1]; Prior SCT,22.7 % of subgroup
same,BOR by prior therapy: PR,[1]; Prior SCT,27.3 % of subgroup
same,BOR by prior therapy: SD,[1]; Prior SCT,0 % of subgroup
same,BOR by prior therapy: CR,[1]; [3],44.7 % of subgroup
same,BOR by prior therapy: PR,[1]; [3],7.9 % of subgroup
same,BOR by prior therapy: SD,[1]; [3],0 % of subgroup
same,"AESI Cutaneous reactions, %",[1]; [4],(38.5) %
same,"AESI Diarrhea, %",[1]; [4],(15.4) %
same,"AESI Infections, %",[1]; [4],(30.8) %
same,"AESI Neutropenia/neutrophil count decreased, %",[1]; [4],(38.5) %
same,"AESI Pneumonia, %",[1]; [4],(3.8) %
same,"AESI Pneumonitis, %",[1]; [4],(3.8) %
same,"AESI Transaminase elevation, %",[1]; [4],(65.4) %
same,"AESI Cutaneous reactions, %",[1]; [5],(54.5) %
same,"AESI Diarrhea, %",[1]; [5],(27.3) %
same,"AESI Infections, %",[1]; [5],(31.8) %
same,"AESI Neutropenia/neutrophil count decreased, %",[1]; [5],(27.3) %
same,"AESI Transaminase elevation, %",[1]; [5],(40.9) %
same,"AESI Colitis, %",[1]; [6],(1.9) %
same,"AESI Cutaneous reactions, %",[1]; [6],(24.5) %
same,"AESI Diarrhea, %",[1]; [6],(39.6) %
same,"AESI Infections, %",[1]; [6],(49.1) %
same,"AESI Neutropenia/neutrophil count decreased, %",[1]; [6],(32.1) %
same,"AESI Pneumonia, %",[1]; [6],(3.8) %
same,"AESI Pneumonitis, %",[1]; [6],(1.9) %
same,"AESI Transaminase elevation, %",[1]; [6],(34.0) %
same,"AESI Cutaneous reactions, %",[1]; [7],(28.6) %
same,"AESI Diarrhea, %",[1]; [7],(14.3) %
same,"AESI Infections, %",[1]; [7],(16.1) %
same,"AESI Neutropenia/neutrophil count decreased, %",[1]; [7],(14.3) %
same,"AESI Pneumonitis, %",[1]; [7],(1.8) %
same,"AESI Transaminase elevation, %",[1]; [7],(30.4) %
same,"AESI Colitis, %",[1]; [8],(3.2) %
same,"AESI Cutaneous reactions, %",[1]; [8],(22.6) %
same,"AESI Diarrhea, %",[1]; [8],(22.6) %
same,"AESI Infections, %",[1]; [8],(32.3) %
same,"AESI Neutropenia/neutrophil count decreased, %",[1]; [8],(25.8) %
same,"AESI Pneumonia, %",[1]; [8],(3.2) %
same,"AESI Cutaneous reactions, %",[1]; [9],(19.8) %
same,"AESI Diarrhea, %",[1]; [9],(19.8) %
same,"AESI Infections, %",[1]; [9],(26.7) %
same,"AESI Neutropenia/neutrophil count decreased, %",[1]; [9],(28.7) %
same,"AESI Pneumonia, %",[1]; [9],(2.0) %
same,"AESI Pneumonitis, %",[1]; [9],(1.0) %
same,response rates regardless of number of prior regimens,[1]; all prior-regimen subgroups,≥ 35%
same,Median duration of response,[1]; all responders,7.7 months
same,increase of rate of cutaneous reactions,[1]; from Cycle ≤2 to Cycle >4,2.8%
same,increase of rate of diarrhea,[1]; from Cycle ≤2 to Cycle >4,2.8%
same,increase of rate of infections,[1]; from Cycle ≤2 to Cycle >4,5.6%
same,tolerability,[1]; interim results of the expansion phase,well tolerated
same,"Incidence of pneumonia, pneumonitis, and colitis","[1]; regardless of treatment duration, Cycle ≤2 to Cycle >4",0-3.2%
same,Median duration of response,[1]; those in CR,7.4 months
same,overall response rate (ORR),[2]; 25 mg BID cohort (N=20),35%
same,"patients with disease progression, 25 mg BID cohort compared to 75 mg BID",[2]; 25 mg BID cohort vs 75 mg BID cohort,three times as many patients experienced disease progression
same,overall response rate (ORR),[2]; 75 mg BID cohort (N=13),54%
same,Discontinuations due to AEs,"[2]; DUV25, 25 mg BID",30%
same,TEAEs leading to discontinuation,"[2]; DUV25, 25 mg BID","disease progression, pneumonitis (2 patients each), cardiac arrest, hypercalcemia, hyperglycemia, pneumonia, rash maculopapular, and respiratory failure (1 each)"
same,fatal AEs (number),"[2]; DUV25, 25 mg BID",5
same,Serious TEAEs occurred in,"[2]; DUV25, 25 mg BID (n=15/20)",75%
same,Discontinuations due to AEs,"[2]; DUV75, 75 mg BID",8%
same,TEAEs leading to discontinuation,"[2]; DUV75, 75 mg BID","disease progression, infectious colitis, and sepsis (1 each)"
same,fatal AEs (number),"[2]; DUV75, 75 mg BID (disease progression)",1
same,Serious TEAEs occurred in,"[2]; DUV75, 75 mg BID (n=9/13)",69%
same,manageability of most TEAEs,[2]; both cohorts,manageable with dose reductions and dose holds
same,Serious TEAEs in ≥2 patients,[2]; both cohorts (N=33),"colitis, diarrhea, abdominal pain, pyrexia, PD, sepsis, pneumonia, hyponatremia, rash maculopapular, dyspnea, and respiratory failure"
